In CN104630230A, “一组特异识别大田软海绵酸的核酸适配体” (priority 2015, dated 2015) one finds Kd data, which are given here for one compound.

SMILES strings stand for the structures. Like-named read-outs stand apart in the source and are kept apart here.

Holding throughout (assay): Affinity analysis (GO separation, FAM fluorescence, saturation binding)
Test [1] concerns the target 5'-FAM-labelled ssDNA OA-17 (80 nt). Particulars: 1 μM OA, 5-200 nM ssDNA, 2 h in the dark, ex 490 nm / em 520 nm.
In test [2] the target is 5'-FAM-labelled ssDNA OA-08 (80 nt). Particulars: 1 μM OA, 5-200 nM ssDNA, 2 h in the dark, ex 490 nm / em 520 nm.
Test [3] deals with 5'-FAM-labelled ssDNA OA-22 (80 nt). Particulars: 1 μM OA, 5-200 nM ssDNA, 2 h in the dark, ex 490 nm / em 520 nm.
The target in test [4] is 5'-FAM-labelled single-stranded DNA aptamer OA-27 (80 nt) (核酸适配体 OA-27).
In test [5] the target is 5'-FAM-labelled single-stranded DNA aptamer OA27-1 (truncated OA-27, random region 40 nt) (核酸适配体 OA27-1). The following applies: OA27-1, saturation binding curve (Fig. 4B).

The Kd is a measure of binding affinity in units of concentration. Regarding `C=C1[C@@H](O)[C@@H]2O[C@]3(CC[C@H](/C=C/[C@@H](C)[C@@H]4CC(C)=C[C@@]5(O[C@H](C[C@@](C)(O)C(=O)O)CC[C@H]5O)O4)O3)CC[C@H]2O[C@@H]1[C@@H](O)C[C@H](C)[C@H]1O[C@@]2(CCCCO2)CC[C@H]1C` [OA, Okadaic acid], the Kd in test [1] was below 100 nM; in test [2] it was below 100 nM; in test [3], below 100 nM; in test [4] (1 μM OA, 5-200 nM ssDNA, 2 h in the dark, GO separation, ex 490 nm / em 520 nm, read-out: Kd) it was below 100 nM; in test [4] (in words, OA-27 compared with the other ssDNA sequences of the 8 tested (Fig. 4A)) it was “其Kd值最小”; in test [5], 39 nM.
